Reference: patent US20220220128A1, “HETEROCYCLIC COMPOUNDS AS KINASE INHIBITORS, COMPOSITIONS COMPRISING THE HETEROCYCLIC COMPOUND, AND METHODS OF USE THEREOF” (JS Innopharm (Shanghai) Ltd, priority 2019, published 2022)

How the values were obtained:
[1] = biological target: T1, human RET kinase (Homo sapiens, UniProt P07949); assay: RET Kinase Assay (LanthaScreen TR-FRET enzymatic assay); assay type: biochemical; conditions: 7 nM RET, 23 μM ATP
T1 construct: purchased Carna 08-159
Summary of the method: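 Human RET (7 nM) preincubated 15 min with compound in 50 mM HEPES pH 7.5, 0.0015% Brij-35, then reacted with 3 μM FAM-P2 peptide and 23 μM ATP for 1 h at 28° C.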

[2] = biological target: T2, BAF3-KIF5B-RET cells (Homo sapiens, UniProt P07949); assay: BAF3-KIF5B-RET Cell proliferation assay (CellTiter-Glo, 72 hours); assay type: cell-based; conditions: growth inhibition, read-out: BA/F3-KIF5B-RET Cellular activity
T2 construct: fused on or other part: P33176 (Kinesin-1 heavy chain)
T2 sequence (P07949 whole entry, change not shown, the tested form may be a part): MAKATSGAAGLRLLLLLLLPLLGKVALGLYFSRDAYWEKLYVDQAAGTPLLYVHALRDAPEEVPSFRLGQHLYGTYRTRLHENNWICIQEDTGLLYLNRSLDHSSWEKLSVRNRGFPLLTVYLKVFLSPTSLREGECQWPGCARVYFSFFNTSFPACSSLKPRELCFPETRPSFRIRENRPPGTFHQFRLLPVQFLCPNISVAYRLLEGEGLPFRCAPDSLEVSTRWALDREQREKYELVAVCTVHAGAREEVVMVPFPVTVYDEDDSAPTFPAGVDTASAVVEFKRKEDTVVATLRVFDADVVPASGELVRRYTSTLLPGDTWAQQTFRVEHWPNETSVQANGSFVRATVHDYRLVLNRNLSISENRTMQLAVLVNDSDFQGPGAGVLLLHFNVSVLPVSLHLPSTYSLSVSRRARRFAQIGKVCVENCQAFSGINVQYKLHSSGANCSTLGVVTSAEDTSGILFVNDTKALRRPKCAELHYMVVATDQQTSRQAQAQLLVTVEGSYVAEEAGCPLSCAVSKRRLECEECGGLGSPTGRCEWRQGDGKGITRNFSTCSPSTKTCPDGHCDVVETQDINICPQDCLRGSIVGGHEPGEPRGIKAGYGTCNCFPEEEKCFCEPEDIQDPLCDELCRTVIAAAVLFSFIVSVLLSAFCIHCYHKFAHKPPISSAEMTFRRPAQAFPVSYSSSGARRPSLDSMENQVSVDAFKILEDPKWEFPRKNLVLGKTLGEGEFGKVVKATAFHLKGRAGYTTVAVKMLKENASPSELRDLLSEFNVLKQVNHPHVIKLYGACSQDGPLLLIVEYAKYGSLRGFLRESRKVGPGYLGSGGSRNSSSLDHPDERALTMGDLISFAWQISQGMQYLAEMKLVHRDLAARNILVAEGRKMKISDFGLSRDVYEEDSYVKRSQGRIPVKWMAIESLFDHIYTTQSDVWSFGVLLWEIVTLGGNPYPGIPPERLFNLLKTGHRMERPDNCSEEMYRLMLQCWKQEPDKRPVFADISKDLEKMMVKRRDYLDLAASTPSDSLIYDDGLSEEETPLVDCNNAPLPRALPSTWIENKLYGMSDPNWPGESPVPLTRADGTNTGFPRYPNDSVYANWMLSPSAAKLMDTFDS
Description: Compounds disclosed herein were tested for the inhibition of RET by a cancer cell proliferation assay commonly known as CellTiter-Glo assay. In this assay, a complete media was prepared by adding 10% fetal bovine serum to RPMI-1640 medium (Life technology) for BAF3-FIF5B-RET cells. BAF3-KIF5B-RET cells were added to each of 88 wells of a 96 well plate at a seeding density of 2,000 cells/well/95 μL. The cells were allowed to attach to the plate by incubating at 37° C. for 24 hours. The compound was dissolved in DMSO (SIGMA). A solution of test compound was prepared in complete media by serial dilution to obtain the following concentrations: 20 μM, 6.67 μM, 2.22 μM, 0.74 μM, 0.25 μM, 0.082 μM, 0.027 μM, 0.0091 μM and 0.0030 μM. The test compound solution (5 μL) was added to each of 80 cell-containing wells. The final concentrations of the compound were following: 1 μM, 0.33 μM, 0.11 μM, 0.037 μM, 0.012 μM, 0.0041 μM, 0.0014 μM, 0.00046 μM and 0.00015 μM. The final concentration of DMSO is 0.1%. To the 8 remaining cell-containing wells, only complete media (containing 0.1% DMSO) was added to form a control group in order to measure maximal proliferation. To the remaining 8 empty wells, complete media was added to for a vehicle control group in order to measure background. The plates were incubated at 37° C. for 72 hours. 50 μl of CellTiter-Glo® Reagent was added to each well. Mix contents for 2 minutes on an orbital shaker to induce cell lysis. Incubate at room temperature for 10 minutes to stabilize luminescent signal. Record luminescence on Paradigm. Cell viability (CV %) was calculated relative to vehicle (DMSO) treated control wells. The IC50 was calculated using GraphPad Prism.

T1 sequence (P07949 29-1114): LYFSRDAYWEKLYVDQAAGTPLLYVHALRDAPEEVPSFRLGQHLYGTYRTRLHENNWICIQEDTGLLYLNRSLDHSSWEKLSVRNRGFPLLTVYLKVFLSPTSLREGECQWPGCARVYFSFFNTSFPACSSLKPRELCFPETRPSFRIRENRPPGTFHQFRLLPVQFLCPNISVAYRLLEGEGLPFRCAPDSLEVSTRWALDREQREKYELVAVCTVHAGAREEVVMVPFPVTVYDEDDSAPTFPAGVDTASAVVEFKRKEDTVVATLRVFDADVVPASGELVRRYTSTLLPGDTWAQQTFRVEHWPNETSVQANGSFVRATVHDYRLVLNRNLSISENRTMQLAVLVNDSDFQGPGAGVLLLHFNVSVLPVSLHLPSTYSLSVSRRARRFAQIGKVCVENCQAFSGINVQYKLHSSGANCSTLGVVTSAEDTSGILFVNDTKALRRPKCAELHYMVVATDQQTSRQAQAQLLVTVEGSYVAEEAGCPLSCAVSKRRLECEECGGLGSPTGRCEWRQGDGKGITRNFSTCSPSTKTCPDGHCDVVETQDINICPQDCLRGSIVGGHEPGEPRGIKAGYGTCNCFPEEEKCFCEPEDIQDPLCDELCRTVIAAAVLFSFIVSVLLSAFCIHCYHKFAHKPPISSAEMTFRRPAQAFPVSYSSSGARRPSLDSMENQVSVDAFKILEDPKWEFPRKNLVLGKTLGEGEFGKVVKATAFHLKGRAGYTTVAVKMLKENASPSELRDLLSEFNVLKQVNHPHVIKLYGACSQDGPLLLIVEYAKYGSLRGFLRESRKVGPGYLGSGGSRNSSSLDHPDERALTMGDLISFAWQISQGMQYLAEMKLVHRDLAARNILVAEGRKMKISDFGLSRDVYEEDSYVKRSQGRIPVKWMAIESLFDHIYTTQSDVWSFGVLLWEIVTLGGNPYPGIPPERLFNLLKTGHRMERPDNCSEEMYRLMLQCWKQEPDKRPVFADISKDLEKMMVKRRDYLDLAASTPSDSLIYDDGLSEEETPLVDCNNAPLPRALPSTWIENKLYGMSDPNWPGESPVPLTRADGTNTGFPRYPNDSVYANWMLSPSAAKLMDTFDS

Row | SMILES | IC50 [1] [nM] | GI50 [2] [nM]
1 | Cn1cc(-c2cc(-c3cnc(N4C5CC6CC4CC(NC(=O)OC(C)(C)C)(C6)C5)cn3)c3c(C#N)cnn3c2)cn1 [Example 109, tert-butyl ((1R,3S,5s,7s)-2-(5-(3-cyano-6-(1-methyl-1H-pyrazol-4-yl)pyrazolo[1,5-a]pyridin-4-yl)pyrazin-2-yl)-2-azaadamantan-5-yl)carbamate] | ≤ 10 | ≤ 10
2 | Cn1cc(-c2cc(-c3cnc(N4C5CC6CC4CC(NC(=O)c4ncccc4Cl)(C6)C5)cn3)c3c(C#N)cnn3c2)cn1 [Example 112, 3-chloro-N-((1R,3S,5s,7s)-2-(5-(3-cyano-6-(1-methyl-1H-pyrazol-4-yl)pyrazolo[1,5-a]pyridin-4-yl)pyrazin-2-yl)-2-azaadamantan-5-yl)picolinamide] | ≤ 10 | ≤ 10
3 | CC(C)(O)COc1cc(-c2cnc(N3C[C@@H]4[C@@H](CNC(=O)c5c(F)cccc5Cl)[C@@H]4C3)cn2)c2c(C#N)cnn2c1 [Example 154, 2-chloro-N-(((1R,5S,6s)-3-(5-(3-cyano-6-(2-hydroxy-2-methylpropoxy)pyrazolo[1,5-a]pyridin-4-yl)pyrazin-2-yl)-3-azabicyclo[3.1.0]hexan-6-yl)methyl)-6-fluorobenzamide] | ≤ 10 | 10 to 50
4 | CC(C)(O)COc1cc(-c2ccc(N3C[C@H]4C[C@@H](NC(=O)c5ncccc5Cl)C[C@H]4C3)nc2)c2c(C#N)cnn2c1 [Example 106, 3-chloro-N-((3aR,5r,6aS)-2-(5-(3-cyano-6-(2-hydroxy-2-methylpropoxy)pyrazolo[1,5-a]pyridin-4-yl)pyridin-2-yl)octahydrocyclopenta[c]pyrrol-5-yl)picolinamide] | ≤ 10 | ≤ 10
5 | Cn1cc(-c2cc(-c3cnc(N4C[C@@H]5C[C@@](C)(NC(=O)c6ccnc(C(F)(F)F)c6)C[C@@H]5C4)cn3)c3c(C#N)cnn3c2)cn1 [Example 147, N-((3aR,5s,6aS)-2-(5-(3-cyano-6-(1-methyl-1H-pyrazol-4-yl)pyrazolo[1,5-a]pyridin-4-yl)pyrazin-2-yl)-5-methyloctahydrocyclopenta[c]pyrrol-5-yl)-2-(trifluoromethyl)isonicotinamide] | ≤ 10 | 10 to 50
6 | CC(C)(O)COc1cc(-c2ccc(N3C[C@@H]4C[C@](C)(NC(=O)c5ncccc5Cl)C[C@@H]4C3)nc2)c2c(C#N)cnn2c1 [Example 115, 3-chloro-N-((3aR,5r,6aS)-2-(5-(3-cyano-6-(2-hydroxy-2-methylpropoxy)pyrazolo[1,5-a]pyridin-4-yl)pyridin-2-yl)-5-methyloctahydrocyclopenta[c]pyrrol-5-yl)picolinamide] | ≤ 10 | 10 to 50
7 | CC(C)(O)COc1cc(-c2cnc(N3C4CC5CC3CC(NC(=O)c3ncccc3F)(C5)C4)cn2)c2c(C#N)cnn2c1 [Example 168, N-((1R,3S,5s,7s)-2-(5-(3-cyano-6-(2-hydroxy-2-methylpropoxy)pyrazolo[1,5-a]pyridin-4-yl)pyrazin-2-yl)-2-azaadamantan-5-yl)-3-fluoropicolinamide] | ≤ 10 | 10 to 50
8 | COc1ccc(NC(=O)[C@]2(C)C[C@H]3CN(c4ccc(-c5cc(-c6ccn(C)n6)cn6ncc(C#N)c56)cn4)C[C@H]3C2)cn1 [Example 113, (3aR,5s,6aS)-2-(5-(3-cyano-6-(1-methyl-1H-pyrazol-3-yl)pyrazolo[1,5-a]pyridin-4-yl)pyridin-2-yl)-N-(6-methoxypyridin-3-yl)-5-methyloctahydrocyclopenta[c]pyrrole-5-carboxamide] | ≤ 10 | ≤ 10
9 | COc1ccc(C(=O)N[C@@H]2C[C@@H]3CN(c4cnc(-c5cc(OCC(C)(C)O)cn6ncc(C#N)c56)cn4)C[C@@H]3C2)cn1 [Example 110, N-((3aR,5r,6aS)-2-(5-(3-cyano-6-(2-hydroxy-2-methylpropoxy)pyrazolo[1,5-a]pyridin-4-yl)pyrazin-2-yl)octahydrocyclopenta[c]pyrrol-5-yl)-6-methoxynicotinamide] | 50 to 100 | > 100
10 | COc1ccc(C(=O)NC[C@@H]2[C@H]3CN(c4cnc(-c5cc(-c6cnn(C)c6)cn6ncc(C#N)c56)cn4)C[C@@H]23)cn1 [Example 156, N-(((1R,5S,6s)-3-(5-(3-cyano-6-(1-methyl-1H-pyrazol-4-yl)pyrazolo[1,5-a]pyridin-4-yl)pyrazin-2-yl)-3-azabicyclo[3.1.0]hexan-6-yl)methyl)-6-methoxynicotinamide] | ≤ 10 | 10 to 50
11 | COc1ccc(CN2C[C@@H]3CN(c4cnc(-c5cc(OCC(C)(C)O)cn6ncc(C#N)c56)cn4)C[C@@H]3C2)cn1 [Example 120, 6-(2-hydroxy-2-methylpropoxy)-4-(5-((3aR,6aS)-5-((6-methoxypyridin-3-yl)methyl)hexahydropyrrolo[3,4-c]pyrrol-2(1H)-yl)pyrazin-2-yl)pyrazolo[1,5-a]pyridine-3-carbonitrile] | ≤ 10 | 10 to 50

Continued, values first:

Row | IC50 [1] [nM] | GI50 [2] [nM] | SMILES
12 | ≤ 10 | 50 to 100 | Cn1cc(-c2cc(-c3ccc(N4C[C@@H]5[C@@H](CNC(=O)c6ccnc(C(F)(F)F)c6)[C@@H]5C4)nc3)c3c(C#N)cnn3c2)cn1 [Example 196, N-(((1R,5S,6s)-3-(5-(3-cyano-6-(1-methyl-1H-pyrazol-4-yl)pyrazolo[1,5-a]pyridin-4-yl)pyridin-2-yl)-3-azabicyclo[3.1.0]hexan-6-yl)methyl)-2-(trifluoromethyl)isonicotinamide]
13 | ≤ 10 | ≤ 10 | COc1ccc(NC(=O)C23CC4CC(C2)N(c2ccc(-c5cc(-c6cnn(C)c6)cn6ncc(C#N)c56)cn2)C(C4)C3)cn1 [Example 189, (1R,3S,5s,7s)-2-(5-(3-cyano-6-(1-methyl-1H-pyrazol-4-yl)pyrazolo[1,5-a]pyridin-4-yl)pyridin-2-yl)-N-(6-methoxypyridin-3-yl)-2-azaadamantane-5-carboxamide]
14 | 50 to 100 | > 100 | CC(C)(O)COc1cc(-c2cnc(N3C[C@H]4CN(Cc5ccc(C#N)nc5)C[C@H]4C3)cn2)c2c(C#N)cnn2c1 [Example 177, 4-(5-((3aR,6aS)-5-((6-cyanopyridin-3-yl)methyl)hexahydropyrrolo[3,4-c]pyrrol-2(1H)-yl)pyrazin-2-yl)-6-(2-hydroxy-2-methylpropoxy)pyrazolo[1,5-a]pyridine-3-carbonitrile]
15 | ≤ 10 | ≤ 10 | COc1cccnc1C(=O)NC[C@@H]1[C@H]2CN(c3ccc(-c4cc(-c5cnn(C)c5)cn5ncc(C#N)c45)cn3)C[C@@H]12 [Example 191, N-(((1R,5S,6s)-3-(5-(3-cyano-6-(1-methyl-1H-pyrazol-4-yl)pyrazolo[1,5-a]pyridin-4-yl)pyridin-2-yl)-3-azabicyclo[3.1.0]hexan-6-yl)methyl)-3-methoxypicolinamide]
16 | ≤ 10 | ≤ 10 | CCOc1cc(-c2cnc(N3C4CC5CC3CC(NC(=O)c3ncccc3Cl)(C5)C4)cn2)c2c(C#N)cnn2c1 [Example 169, 3-chloro-N-((1R,3S,5s,7s)-2-(5-(3-cyano-6-ethoxypyrazolo[1,5-a]pyridin-4-yl)pyrazin-2-yl)-2-azaadamantan-5-yl)picolinamide]
17 | 50 to 100 | > 100 | COc1ccc(CC(=O)N[C@H]2[C@@H]3CN(c4ccc(-c5cc(OCC(C)(C)O)cn6ncc(C#N)c56)cn4)C[C@@H]32)cn1 [Example 190, N-((1R,5S,6s)-3-(5-(3-cyano-6-(2-hydroxy-2-methylpropoxy)pyrazolo[1,5-a]pyridin-4-yl)pyridin-2-yl)-3-azabicyclo[3.1.0]hexan-6-yl)-2-(6-methoxypyridin-3-yl)acetamide]
18 | ≤ 10 | ≤ 10 | COc1ccc(C(=O)NC23CC4CC(C2)N(c2ccc(-c5cc(-c6cnn(C)c6)cn6ncc(C#N)c56)cn2)C(C4)C3)cn1 [Example 188, N-((1R,3S,5s,7s)-2-(5-(3-cyano-6-(1-methyl-1H-pyrazol-4-yl)pyrazolo[1,5-a]pyridin-4-yl)pyridin-2-yl)-2-azaadainantan-5-yl)-6-methoxynicotinamide]
19 | ≤ 10 | 10 to 50 | COc1cncc(C(=O)NC[C@@H]2[C@H]3CN(c4ccc(-c5cc(-c6cnn(C)c6)cn6ncc(C#N)c56)cn4)C[C@@H]23)c1 [Example 192, N-(((1R,5S,6s)-3-(5-(3-cyano-6-(1-methyl-1H-pyrazol-4-yl)pyrazolo[1,5-a]pyridin-4-yl)pyridin-2-yl)-3-azabicyclo[3.1.0]hexan-6-yl)methyl)-5-methoxynicotinainide]
